Laboratory results taken from US20040248887A1, “Inhibitors of cathepsin S” (IRM LLC, priority 2003, published 2004).
Like-named read-outs stand apart in the source and are kept apart here.

What was measured:
Format in all cases: biochemical
Cathepsin B = Cathepsin B (Homo sapiens, UniProt P07858); test: Cathepsin B inhibition, fluorogenic peptide substrate kinetic assay; settings: Table III; Cathepsin B inhibition constant, pH5.5; read-out: Ki Cat. B
Protocol: The optimal substrate for cathepsin B, acetyl-histidine-proline-valine-lysine-amino carbamoyl coumarin, was identified from screening a combinatorial library of fluorogenic peptide substrates (Harris, J. L., B. J. Backes, et al., Proc Natl Acad Sci USA 2000, 97(14), 7754-9). Kinetic measurements are performed in a total reaction volume of 30 μl in 384-well microtiter plates. Cathepsin B, at a final concentration of 1.5 nM (active site), is incubated with the compounds at twelve varying concentrations in a buffer containing 100 mM NaAc (pH5.5), 1 mM EDTA, 100 mM NaCl, 0.01% Brij-35 for 20 minutes at room temperature. Control reactions in the absence of inhibitor are performed in replicates of 24. The reactions are initiated by adding the substrate, acetyl-histidine-proline-valine-lysine-amino carbamoyl coumarin, to a final concentration of 10 μM. The rate of substrate hydrolysis is measured by monitoring the increase in fluorescence at an excitation wavelength of 380 nm and an emission wavelength of 450 nm that results from cleavage of the aniline bond in the substrate by the enzyme. The apparent inhibition constants for the compounds are determined from the enzyme progress curves (Kuzmie, P., K. C. Elrod, et al., Anal Biochem 2000, 286(1), 45-50) and are then used to calculate the inhibition constants for competitive inhibitors.

Cathepsin L = Cathepsin L (Homo sapiens, UniProt P07711); test: Cathepsin L inhibition, fluorogenic peptide substrate kinetic assay; settings: Table III; Cathepsin L inhibition constant, pH5.5; read-out: Ki Cat. L
Protocol: (§1) Kinetic measurements are performed in a total reaction volume of 30 μl in 384-well microtiter plates. […] The reactions are initiated by adding the substrate, acetyl-histidine-lysine-phenylalanine-lysine-amino carbamoyl coumarin, to a final concentration of 20 μM. The rate of substrate hydrolysis is measured by monitoring the increase in fluorescence at an excitation wavelength of 380 nm and an emission wavelength of 450 nm that results from cleavage of the aniline bond in the substrate by the enzyme. The apparent inhibition constants for the compounds are determined from the enzyme progress curves (Kuzmic, P., K. C. Elrod, et al., Anal Biochem 2000, 286(1), 45-50) and are then used to calculate the inhibition constants for competitive inhibitors.

Cathepsin K = target: T1, Cathepsin K (Homo sapiens, UniProt P43235); test: Cathepsin K inhibition, fluorogenic peptide substrate kinetic assay; settings: Table III; Cathepsin K inhibition constant, pH5.5; read-out: Ki Cat. K
T1 sequence (P43235 115-329): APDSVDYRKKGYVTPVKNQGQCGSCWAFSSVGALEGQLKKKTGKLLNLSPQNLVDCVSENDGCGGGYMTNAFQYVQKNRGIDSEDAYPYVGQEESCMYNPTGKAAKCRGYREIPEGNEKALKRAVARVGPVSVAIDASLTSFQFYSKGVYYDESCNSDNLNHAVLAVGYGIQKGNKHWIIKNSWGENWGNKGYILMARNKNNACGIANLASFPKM
Protocol: as §1, with “The optimal substrate for cathepsin K, acetyl-lysine-histidine-proline-lysine-amino carbamoyl coumarin, was identified from screening a combinatorial library of fluorogenic peptide substrates (Harris, J. L., B. J. Backes, et al., Proc Natl Acad Sci U S A 2000, 97(14), 7754-9). Kinetic” for “Kinetic”, “substrate, acetyl-lysine-histidine-proline-lysine-amino” for “substrate, acetyl-histidine-lysine-phenylalanine-lysine-amino”, “of 40” for “of 20”

Cathepsin S = Cathepsin S (Homo sapiens, UniProt P25774); test: Cathepsin S inhibition, fluorogenic peptide substrate kinetic assay; settings: Cathepsin S inhibition constant, pH5.5, read-out: Ki Cat. S
Method in brief: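 Ki values derive from apparent constants fitted to progress curves, corrected for competition with substrate via [S] and Km. Kinetics were monitored at 380 nm excitation/450 nm emission, after substrate addition (Ac-HPVK-ACC, 50 μM final) to start the reaction.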

Sequence of Cathepsin S (P25774 115-331, species assumed): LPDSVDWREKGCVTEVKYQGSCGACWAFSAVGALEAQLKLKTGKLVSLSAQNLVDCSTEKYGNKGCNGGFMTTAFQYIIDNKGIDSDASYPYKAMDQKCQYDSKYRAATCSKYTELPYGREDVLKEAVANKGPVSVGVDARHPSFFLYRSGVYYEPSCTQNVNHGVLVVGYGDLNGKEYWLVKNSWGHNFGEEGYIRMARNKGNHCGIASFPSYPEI
Sequence of Cathepsin L (P07711 114-333, species assumed): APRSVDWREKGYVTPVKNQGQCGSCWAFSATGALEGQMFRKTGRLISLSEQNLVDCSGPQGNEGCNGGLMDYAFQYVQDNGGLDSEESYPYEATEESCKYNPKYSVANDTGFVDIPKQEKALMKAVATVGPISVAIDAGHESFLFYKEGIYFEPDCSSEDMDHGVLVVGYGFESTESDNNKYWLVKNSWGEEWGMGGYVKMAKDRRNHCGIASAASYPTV

In the case of Cc1cccc(C(=O)N[C@@H](CC2CCCCC2)C(=O)NCCN2CCc3cc(F)ccc32)c1 [Compound 71, N—(S)-{2-cyclohexyl-1-[2-(5-fluoro-2,3-dihydro-indol-1-yl)-ethylcarbamoyl]-ethyl}-3-methyl-benzamide], the Ki (Cathepsin B) is reported as greater than 10 µM, the Ki (Cathepsin L) is reported as less than 0.1 µM and the Ki (Cathepsin K) is reported as less than 10 µM. The Ki (Cathepsin S; Table II) was less than 0.1 µM and the Ki (Cathepsin S; Table III) was less than 0.1 µM.
O=C(N[C@H](C(=O)N[C@@H](COCc1ccccc1)CN1CCc2cc(F)ccc21)c1ccc(Cl)cc1Cl)c1ccc(F)c(F)c1 [Compound 211, N-(S)-((3-(benzyloxy)-1-(5-fluoroindolin-1-yl)propan-2-(R)-ylcarbamoyl)(2,4-dichlorophenyl)methyl)-3,4-difluorobenzamide] was tested, and the Ki (Cathepsin B) was greater than 10 µM, the Ki (Cathepsin L) was less than 10 µM and the Ki (Cathepsin K) was greater than 10 µM. It also gave a Ki (Cathepsin S; Table II) of less than 0.1 µM and a Ki (Cathepsin S; Table III) of less than 0.1 µM.
Work on Cc1nn(C)c(Cl)c1S(=O)(=O)N[C@@H](CC1CCCCC1)C(=O)NCCN1CCc2cc(F)ccc21 [Compound 241, (S)-2-(5-Chloro-1,3-dimethyl-1H-pyrazole-4-sulfonylamino)-3-cyclohexyl-N-[2-(5-fluoro-2,3-dihydro-indol-1-yl)-ethyl]-propionamide] yielded a Ki (Cathepsin B) greater than 10 µM, a Ki (Cathepsin L) of less than 10 µM and a Ki (Cathepsin K) greater than 10 µM. It also gave a Ki (Cathepsin S; Table II) of less than 1 µM and a Ki (Cathepsin S; Table III) of less than 1 µM.
With COc1ccc(N2CCC[C@H](NC(=O)[C@H](CC(C)C)NC(=O)c3cccc(C)c3)C2)cc1 (single isomer, unassigned) [Compound 31] the Ki (Cathepsin B) was greater than 10 µM, the Ki (Cathepsin L) was less than 1 µM and the Ki (Cathepsin K) was less than 10 µM. It also gave a Ki (Cathepsin S; Table II) of less than 10 µM and a Ki (Cathepsin S; Table III) of less than 10 µM.
With Cc1ccccc1C(C)C(=O)N[C@@H](CC1CCCCC1)C(=O)NCCN1CCc2cc(F)ccc21 (stereo partly drawn) [Compound 61, N-{2-cyclohexyl-1-(S)-[2-(5-fluoro-2,3-dihydro-indol-1-yl)-ethylcarbamoyl]-ethyl}-2-o-tolyl-propionamide] the Ki (Cathepsin B) was greater than 10 µM, the Ki (Cathepsin L) was less than 0.1 µM and the Ki (Cathepsin K) was greater than 10 µM. It also gave a Ki (Cathepsin S; Table II) of less than 0.1 µM and a Ki (Cathepsin S; Table III) of less than 0.1 µM.
COC(=O)c1ccc(COC[C@@H](CN2CCc3cc(F)ccc32)NC(=O)[C@H](CCC2CCCCC2)NC(=O)c2cccc(OC)c2)cc1 [Compound 171, 4-{2-(R)-[4-Cyclohexyl-2-(S)-(3-methoxy-benzoylamino)-butyrylamino]-3-(5-fluoro-2,3-dihydro-indol-1-yl)-propoxymethyl}-benzoic acid methyl ester] showed a Ki (Cathepsin B) greater than 10 µM, a Ki (Cathepsin L) of less than 10 µM and a Ki (Cathepsin K) greater than 10 µM. The Ki (Cathepsin S; Table II) was less than 0.1 µM and the Ki (Cathepsin S; Table III) was less than 0.1 µM.
